Tested on: Arabidopsis thaliana seedlings
Experiment: Test of the herbicidal activity on Arabidopsis thaliana seedlings grown hydroponically at the cotyledon stage
Assay type: in vivo
Set-up: key: A for Active in the case where the plant is killed, that is to say when the two cotyledons have lost all of their green coloration; “N” for Not active, in the case where no biological activity is observed
Details: for Activity after 24 h: 24 h after application; for Activity after 96 h: 96 h after application
Procedure: The compounds were tested on Arabidopsis thaliana seedlings grown hydroponically at the cotyledon stage. Sterile seeds are germinated in the light in a culture plate, in the presence of 200 μL of nutrient medium. After five days of culture (time 0 of the trial), the nutrient medium is replaced with an equivalent volume (200 μL) of this same medium containing the compound to be tested at different concentrations. The manifestation of herbicidal activity is indicated by A for Active in the case where the plant is killed, that is to say when the two cotyledons have lost all of their green coloration, 24 h and 96 h after application of the product. The absence of herbicidal activity is indicated by “N” for Not active, in the case where no biological activity is observed.

## CC1=CCc2c(O)cc(CCc3ccccc3)cc2OC1 [Compound A]
10 μg/mL in nutrient medium
  Activity after 24 h: N
  Activity after 96 h: N
50 μg/mL in nutrient medium
  Activity after 24 h: A
  Activity after 96 h: A
100 μg/mL in nutrient medium
  Activity after 24 h: A
  Activity after 96 h: A

## CC1=CCOc2cc(CCc3ccccc3)c(C(=O)O)c(O)c2C1 [Compound C]
10 μg/mL in nutrient medium
  Activity after 24 h: A
  Activity after 96 h: A
50 μg/mL in nutrient medium
  Activity after 24 h: A
  Activity after 96 h: A
100 μg/mL in nutrient medium
  Activity after 24 h: A
  Activity after 96 h: A

## CC1=CCc2c(cc(CCc3ccccc3)c(C(=O)O)c2O)OC1 [Compound H]
10 μg/mL in nutrient medium
  Activity after 24 h: A
  Activity after 96 h: A
50 μg/mL in nutrient medium
  Activity after 24 h: A
  Activity after 96 h: A
100 μg/mL in nutrient medium
  Activity after 24 h: A
  Activity after 96 h: A

## COC(=O)c1c(CCc2ccccc2)cc2c(c1O)CC=C(C)CO2 [Compound D]
10 μg/mL in nutrient medium
  Activity after 24 h: N
  Activity after 96 h: N
50 μg/mL in nutrient medium
  Activity after 24 h: N
  Activity after 96 h: A
100 μg/mL in nutrient medium
  Activity after 24 h: N
  Activity after 96 h: A

## Oc1cccc2c1CC=CCO2 [Compound E, reference compound]
10 μg/mL in nutrient medium
  Activity after 24 h: N
  Activity after 96 h: N
50 μg/mL in nutrient medium
  Activity after 24 h: N
  Activity after 96 h: N
100 μg/mL in nutrient medium
  Activity after 24 h: N
  Activity after 96 h: N
